Reference: US11141410B2 (MERCK SHARP & DOHME CORP., priority 2015, dated 2021)
Where two headings read alike, the source gives them in different places.

Columns and labels:
MRSA COL (MB5393) [1] = assay: TarO Inhibitor/β-Lactam Synergy Assay (growth, OD600); type: cell-based; conditions: Staphylococcus aureus, read-out: MITC95 TarO inhibitor alone, Bacteria: SA_MB5393
MRSA COL (MB5393) [2] = assay: as above; type: cell-based, Staphylococcus aureus; conditions: for MITC95 TarO inhibitor + 4 μg/mL IPM; Bacteria: SA_MB5393: in combination with 4 μg/mL imipenem (IPM); for MITC95 TarO inhibitor + 8 μg/mL DCX; Bacteria: SA_MB5393: in combination with 8 μg/mL dicloxacillin (DCX)
Protocol: The TarO inhibitor/β-lactam synergy assay was performed to measure the re-sensitization of methicillin-resistant Staphylococci bacteria (MB5393: MRSA COL) to β-lactam antibiotics by TarO inhibitors. MRSA COL is a hospital-acquired penicillinase-negative clinically isolated strain commonly used in Staphylococcus aureus studies and is fully resistant to the antimicrobial bioactivity of β-lactam antibiotics, including but not limited to imipenem and dicloxacillin. […] MRSA COL is fully refractory to β-lactam antibiotic effect at the current clinical breakpoint concentrations and as such MRSA COL is fully viable at these concentrations.
The β-lactam antibiotic concentration was fixed at the clinical breakpoint (imipenem 4 μg/ml or dicloxacillin 8 μg/ml) and the TarO inhibitors were titrated by 2 fold starting from the highest concentration of 200 μM with final DMSO concentration of 2% in the assay. 5×10^5 colony forming unit of MRSA COL in cation-adjusted Mueller Hinton broth (CAMHB) was then mixed and the assay plate was incubated for 20 hours at 37° C. without shaking. After 20 hours, the optical density at 600 nm (OD600) was read for all wells to determine relative growth of MRSA COL.

[3] = TarO inhibitor alone, >200 μM = 95% growth inhibition not achieved, 20 hours at 37° C.

Row | SMILES | IC95 (MRSA COL (MB5393) [1]; [3]) | MITC95 TarO inhibitor + 4 μg/mL IPM; Bacteria: SA_MB5393 (MRSA COL (MB5393) [2]) | MITC95 TarO inhibitor + 8 μg/mL DCX; Bacteria: SA_MB5393 (MRSA COL (MB5393) [2]) | IC95 (MRSA COL (MB5393) [1]; 20 h)
1 | C[C@H]1[C@@H](c2cc(N3CCC(F)(F)C3)cc(C(F)(F)F)c2)OC(=O)N1C(=O)NCc1cccc2cncnc12 [Example 97, (4S,5R)-5-(3-(3,3-difluoropyrrolidin-1-yl)-5-(trifluoromethyl)phenyl)-4-methyl-2-oxo-N-(quinazolin-8-ylmethyl)oxazolidine-3-carboxamide] | > 200 µM | 0.42 µM | 3.32 µM | –
2 | COc1cc([C@H]2OC(=O)N(C(=O)NCc3cncc4cccnc34)[C@H]2CO)cc(C(F)(F)F)c1 [Example 51, (4S,5R)-4-(hydroxymethyl)-5-[3-methoxy-5-(trifluoromethyl)phenyl]-N-(1,6-naphthyridin-8-yl-methyl)-2-oxo-1,3-oxazolidine-3-carboxamide] | > 200 µM | 1.56 µM | 8.33 µM | –
3 | COc1cc(C(F)(F)F)nc([C@@H]2OC(=O)N(C(=O)NCc3cncc4ccccc34)[C@H]2C)n1 [Example 96, (4S,5R)—N-(isoquinolin-4-ylmethyl)-5-(4-methoxy-6-(trifluoromethyl)pyrimidin-2-yl)-4-methyl-2-oxooxazolidine-3-carboxamide] | > 200 µM | 4.17 µM | 25 µM | –
4 | O=C(NCc1cncc2ccccc12)N1C(=O)O[C@H](c2cc(C(F)(F)F)cc(C(F)(F)F)c2)[C@@H]1CO [Example 50, (4S,5R)-5-(3,5-bis(trifluoromethyl)phenyl)-4-(hydroxymethyl)-N-(isoquinolin-4-ylmethyl)-2-oxooxazolidine-3-carboxamide] | – | 0.22 µM | 0.64 µM | > 200 µM
5 | C[C@H]1[C@@H](c2cc(F)cc(C(F)(F)F)c2)OC(=O)N1C(=O)NCc1cccc2ccccc12 [Example 6, (4S,5R)-5-[3-fluoro-5-(trifluoromethyl)phenyl]-4-methyl-N-(naphthalen-1-ylmethyl)-2-oxo-1,3-oxazolidine-3-carboxamide] | > 200 µM | 0.01 µM | 0.02 µM | –
6 | Cc1cccc(OCC(=O)N2C(=O)O[C@H](c3cccc(C(F)(F)F)c3)[C@@H]2C)c1C [Example 90, (4S,5R)-3-(2-(2,3-dimethylphenoxy)acetyl)-4-methyl-5-(3-(trifluoromethyl)-phenyl)oxazolidin-2-one] | > 200 µM | 0.39 µM | 12.50 µM | –
7 | C[C@H]1[C@@H](c2cc(F)cc(C(F)(F)F)c2)OC(=O)N1C(=O)NCc1ccccc1S(C)(=O)=O [Example 44, (4S,5R)-5-[3-fluoro-5-(trifluoromethyl)phenyl]-4-methyl-N-[2-(methylsulfonyl)benzyl]-2-oxo-1,3-oxazolidine-3-carboxamide] | > 200 µM | 12.50 µM | 25 µM | –
8 | Cc1cc([C@H]2OC(=O)N(C(=O)CCc3cccc4cnccc34)[C@H]2C)cc(C(F)(F)F)c1 [Example 74, (4S,5R)-3-(3-isoquinolin-5-ylpropanoyl)-4-methyl-5-[3-methyl-5-(trifluoromethyl)phenyl]-1,3-oxazolidin-2-one] | > 200 µM | 0.30 µM | 6.25 µM | –
9 | Cc1ccccc1CNC(=O)N1C(=O)O[C@H](c2cc(F)cc(C(F)(F)F)c2)[C@@H]1C [Example 16, (4S,5R)-5-[3-fluoro-5-(trifluoromethyl)phenyl]-4-methyl-N-(2-methylbenzyl)-2-oxo-1,3-oxazolidine-3-carboxamide] | > 200 µM | 0.38 µM | 3.52 µM | –
10 | C[C@H]1[C@@H](c2cc(C(F)(F)F)cc(C(F)(F)F)c2)OC(=O)N1C(=O)NCc1cccc2nccnc12 [Example 10, (4S,5R)-5-[3,5-bis (trifluoromethyl)phenyl]-4-methyl-2-oxo-N-(quinoxalin-5-ylmethyl)-1,3-oxazolidine-3-carboxamide] | > 200 µM | 0.06 µM | 0.37 µM | –
11 | C[C@H]1[C@@H](c2cc(F)cc(C(F)(F)F)c2)OC(=O)N1C(=O)NCc1ccccc1C(F)(F)F [Example 7, (4S,5R)-5-[3-fluoro-5-(trifluoromethyl)phenyl]-4-methyl-2-oxo-N-[2-(trifluoromethyl)benzyl]-1,3-oxazolidine-3-carboxamide] | > 200 µM | 0.05 µM | 0.33 µM | –
12 | C[C@H]1[C@@H](c2cc(F)cc(C(F)(F)F)c2)OC(=O)N1C(=O)NCc1cccc(N(C)C)c1 [Example 9, (4S,5R)-N-[3-(dimethylamino)benzyl]-5-[3-fluoro-5-(trifluoromethyl)phenyl]-4-methyl-2-oxo-1,3-oxazolidine-3-carboxamide] | > 200 µM | 0.22 µM | 1.65 µM | –
13 | C[C@H]1[C@@H](c2cc(F)cc(C(F)(F)F)c2)OC(=O)N1C(=O)NCc1ccnc2cccnc12 [Example 34, (4S,5R)-5-[3-fluoro-5-(trifluoromethyl)phenyl]-4-methyl-N-(1,5-naphthyridin-4-ylmethyl)-2-oxo-1,3-oxazolidine-3-carboxamide] | > 200 µM | 1.95 µM | 14.06 µM | –
14 | COc1cccc([C@H]2OC(=O)N(C(=O)CCc3cccc4ccccc34)[C@H]2C)n1 [Example 81, (4S,5S)-5-(6-methoxypyridin-2-yl)-4-methyl-3-(3-naphthalen-1-ylpropanoyl)-1,3-oxazolidin-2-one] | > 200 µM | 0.75 µM | 100.00 µM | –
15 | C[C@H]1[C@@H](c2cc(Cl)cc(C(F)(F)F)c2)OC(=O)N1C(=O)CCc1cccc2ccccc12 [Example 66, (4S,5R)-5-[3-chloro-5-(trifluoromethyl)phenyl]-4-methyl-3-(3-naphthalen-1-ylpropanoyl)-1,3-oxazolidin-2-one] | > 200 µM | 0.03 µM | 0.20 µM | –
16 | C[C@H]1[C@@H](c2cc(F)cc(C(F)(F)F)c2)OC(=O)N1C(=O)NCc1cccc2cn[nH]c12 [Example 39, (4S,5R)-5-[3-fluoro-5-(trifluoromethyl)phenyl]-N-(1H-indazol-7-ylmethyl)-4-methyl-2-oxo-1,3-oxazolidine-3-carboxamide] | > 200 µM | 0.78 µM | 25 µM | –
17 | C[C@H]1[C@@H](c2cc(F)cc(C(F)(F)F)c2)OC(=O)N1C(=O)NCc1ccccc1Cl [Example 21, (4S,5R)-N-(2-chlorobenzyl)-5-[3-fluoro-5-(trifluoromethyl)phenyl]-4-methyl-2-oxo-1,3-oxazolidine-3-carboxamide] | > 200 µM | 0.16 µM | 1.73 µM | –
18 | C[C@H]1[C@@H](c2cccc(OC(F)(F)F)c2)OC(=O)N1C(=O)CCc1cncc2ccccc12 [Example 72, (4S,5R)-3-(3-isoquinolin-4-ylpropanoyl)-4-methyl-5-[3-(trifluoromethoxy)phenyl]-1,3-oxazolidin-2-one] | > 200 µM | 0.21 µM | 1.56 µM | –
19 | O=C(CCc1cncc2ccccc12)N1C[C@H](c2cc(C(F)(F)F)cc(C(F)(F)F)c2)OC1=O [Example 85, (5S)-5-[3,5-bis(trifluoromethyl)phenyl]-3-(3-isoquinolin-4-ylpropanoyl)-1,3-oxazolidin-2-one] | > 200 µM | 0.55 µM | 25.00 µM | –
20 | C[C@H]1[C@@H](c2cccc(F)c2)OC(=O)N1C(=O)CCc1cncc2ccccc12 [Example 80, (4S,5R)-5-(3-fluorophenyl)-3-(3-isoquinolin-4-ylpropanoyl)-4-methyl-1,3-oxazolidin-2-one] | > 200 µM | 4.69 µM | – | –
21 | C[C@H]1[C@@H](c2cc(C(F)(F)F)cc(C(F)(F)F)c2)OC(=O)N1C(=O)Cc1cccc2ccccc12 [Example 71, (4S,5R)-5-[3,5-bis(trifluoromethyl)phenyl]-4-methyl-3-(naphthalen-1-ylacetyl)-1,3-oxazolidin-2-one] | > 200 µM | 0.89 µM | – | –
22 | C[C@H]1[C@@H](c2cc(C(F)(F)F)cc(C(F)(F)F)c2)OC(=O)N1C(=O)CCc1cncc2ccccc12 [Example 65, (4S,5R)-5-(3,5-bis(trifluoromethyl)phenyl)-3-(3-(isoquinolin-4-yl)propanoyl)-4-methyloxazolidin-2-one] | > 200 µM | 0.06 µM | 0.20 µM | –
